Measured values reported in patent US5250416A, “Method for highly sensitive determination of NADH using kinase” (Noda Institute for Scientific Rsearch, priority 1991, dated 1993).

Legend:
[1] = system: NADH kinase (the present enzyme); experiment: Substrate specificity of the present enzyme (NADH kinase); format: biochemical, Pichia membranaefaciens; details: for Relative activity (%): as substrate of the present enzyme, 30° C., 20 minutes, pH 8.5, relative to NADH = 100; for Action of the present enzyme on the substrate (in words): substrate specificity
Experimental: The substrate specificity of the present enzyme was examined under the following reaction conditions.
To 0.9 ml of each of the substrate solutions containing NADH or NAD^+, respectively, shown in Table 1 was added 0.1 ml of 23 U/ml of the present enzyme, and the reaction was carried out at 30° C. for 20 minutes. Then, the reaction was terminated by heat treatment at 100° C. for 2 minutes, and the denatured protein was removed, after which the amount of NADPH or NADP^+ produced by the reaction of the corresponding substrate was measured as follows. As a control solution, there was used a mixture of each substrate solution and the present enzyme in which the reaction had been terminated immediately after mixing them.
With 1 ml of each of the reaction solutions obtained in the above was mixed 1 ml of a color-producing solution consisting of 10 mM G-6-P, 50 mM HEPPS buffer (pH 8.0), 10 mM magnesium chloride, 0.1% bovine serum albumin, 2.5 IU/ml G-6-P dehydrogenase (NADP^+ -dependent), 5 IU/ml diaphorase and 250 μM 2,6-dichlorophenolindophenol. The resulting mixture was immediately introduced into a constant-temperature cuvette of STASAR III spectrophotometer of Gilford and subjected to reaction at 30° C. Simultaneously with the reaction, the change of absorbance at 600 nm was measured with the lapse of time, and the difference (ΔOD600nm /min) between absorbance values 1 minute and 2 minutes after the initiation of the coloration reaction was taken as a measured value. As to the relative activity (%), a measured value (ΔOD600nm /min) obtained by using NAD^+ as substrate was shown as a percentage based on a measured value (ΔOD600nm /min) obtained by using NADH as substrate.

[2] = system: NADH kinase (the present enzyme); experiment: Km value (Michaelis constant) of the present enzyme for NADH; format: biochemical, Pichia membranaefaciens; details: 30° C., pH 7.8 (Tris buffer)
Experimental: 0.9 Milliliters of the substrate solution containing NADH shown in Table 2 was preheated to 30° C., after which 0.1 ml of a solution of the present enzyme having an adequate concentration was added, and the reaction was carried out at 30° C. for 20 minutes. Thereafter, the reaction was terminated by heat treatment at 100° C. for 2 minutes, and the denatured protein was removed. Then, the amount of NADPH produced by the reaction of the substrate was measured as follows. As a control solution, there was used a mixture of the substrate solution and the present enzyme in which the reaction had been terminated immediately after mixing them.
With 1 ml of each of the reaction solutions obtained in the above was mixed 1 ml of a color-producing solution having the same composition as that of the color-producing solution described in the above item "Substrate specificity". […] Simultaneously with the reaction, the change of absorbance at 600 nm was measured with the lapse of time, and the difference (ΔOD600nm /min) between absorbance values 1 minute and 2 minutes after the initiation of the coloration reaction was obtained as a measured value. By the use of a calibration curve of ΔOD600nm /min versus NADPH concentration previously prepared using NADPH solutions of known concentrations, the amount of the NADPH produced was calculated from the measured value.

NADH kinase B = target: T1, NADH kinase B (Saccharomyces cerevisiae, UniProt Q06892); details: as substrate of NADH kinase B; from reference; cited from earlier work
T1 sequence (Q06892 1-414): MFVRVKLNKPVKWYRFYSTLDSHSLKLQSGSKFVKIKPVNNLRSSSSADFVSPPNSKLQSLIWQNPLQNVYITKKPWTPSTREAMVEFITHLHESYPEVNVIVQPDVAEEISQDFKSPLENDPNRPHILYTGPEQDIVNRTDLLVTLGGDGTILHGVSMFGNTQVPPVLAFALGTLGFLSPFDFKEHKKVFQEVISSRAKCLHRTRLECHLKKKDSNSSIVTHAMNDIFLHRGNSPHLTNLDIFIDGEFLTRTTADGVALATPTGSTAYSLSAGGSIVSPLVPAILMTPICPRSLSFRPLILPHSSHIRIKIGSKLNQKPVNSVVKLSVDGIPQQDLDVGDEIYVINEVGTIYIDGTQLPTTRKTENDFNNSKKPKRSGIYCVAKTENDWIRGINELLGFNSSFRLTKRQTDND

NADH kinase A = target: T2, NADH kinase A (Saccharomyces cerevisiae, UniProt Q06892); details: as substrate of NADH kinase A; from reference; cited from earlier work
T2 sequence (Q06892 1-414): T1 sequence (Q06892 1-414)

[3] = system: NADH kinase (the present enzyme); experiment: Inhibition, activation and stabilization of the present enzyme; format: biochemical, Pichia membranaefaciens

| Stabilization of the present enzyme [3] | Structure (SMILES) | Relative activity (%) [1] [%] | Action of the present enzyme on the substrate (in words) [1] | Km [2] [µM] | Specificity (relative activity, NADH = 100) (NADH kinase B) | Specificity (relative activity, NADH = 100) (NADH kinase A) |
| --- | --- | --- | --- | --- | --- | --- |
| – | NC(=O)C1=CN([C@@H]2O[C@H](COP(=O)(O)OP(=O)(O)OC[C@H]3O[C@@H](n4cnc5c(N)ncnc54)[C@H](O)[C@@H]3O)[C@@H](O)[C@H]2O)C=CC1 [NADH] | 100 | very high specificity | 27 | 100 | 100 |
| – | NC(=O)c1ccc[n+]([C@@H]2O[C@H](COP(=O)([O-])OP(=O)(O)OC[C@H]3O[C@@H](n4cnc5c(N)ncnc54)[C@H](O)[C@@H]3O)[C@@H](O)[C@H]2O)c1 [NAD^+] | 0.9 | hardly acts | – | 1.6 | 1.7 |
| stabilized | CC(=O)N[C@@H](CS)C(=O)O [N-acetyl-L-cysteine] | – | – | – | – | – |
| stabilized | O[C@H](CS)[C@H](O)CS (racemic) [dithiothreitol] | – | – | – | – | – |
